Assay results taken from patent US8557796B2, “Substituted 1-oxa-2,8-diaza-spiro [4,5] dec-2-ene derivatives and related treatment methods” (Gruenenthal GmbH, priority 2001, dated 2013).

The compounds below were run against T1, NA transporter (Rattus norvegicus, UniProt Q9WTR4) (assay: Noradrenalin uptake inhibition (NA-uptake) in synaptosomes). Conditions: rat hypothalamus synaptosomes.
T1 construct: synaptosomes from rat brain regions were freshly isolated; from tissue; host or cells: P2 synaptosome fraction from hypothalamus of male rat brain
Format: biochemical
Text: Tests on Noradrenalin Uptake Inhibition (NA-Uptake Inhibition)
In order to be able to carry out these in vitro studies, synaptosomes from rat brain regions were freshly isolated.

T1 sequence (Q9WTR4 1-597): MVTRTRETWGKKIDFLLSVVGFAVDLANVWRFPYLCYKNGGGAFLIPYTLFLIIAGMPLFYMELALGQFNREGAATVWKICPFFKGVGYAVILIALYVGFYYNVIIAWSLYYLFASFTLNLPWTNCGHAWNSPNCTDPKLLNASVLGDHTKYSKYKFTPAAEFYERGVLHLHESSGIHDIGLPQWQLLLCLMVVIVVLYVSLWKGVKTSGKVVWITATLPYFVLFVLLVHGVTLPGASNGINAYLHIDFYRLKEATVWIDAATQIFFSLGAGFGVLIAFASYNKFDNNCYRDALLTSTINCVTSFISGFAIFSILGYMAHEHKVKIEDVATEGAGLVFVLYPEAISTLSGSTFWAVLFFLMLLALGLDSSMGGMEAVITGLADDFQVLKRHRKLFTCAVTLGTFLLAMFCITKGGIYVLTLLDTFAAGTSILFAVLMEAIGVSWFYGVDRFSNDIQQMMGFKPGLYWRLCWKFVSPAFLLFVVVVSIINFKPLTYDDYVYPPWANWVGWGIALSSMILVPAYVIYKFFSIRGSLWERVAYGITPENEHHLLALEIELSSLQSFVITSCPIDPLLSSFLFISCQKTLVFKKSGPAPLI

| SMILES | inhibition at 10 µM [%] | NA-uptake, 10 μM, % inhibition [%] |
| --- | --- | --- |
| CC(C)CC(NC(=O)C1=NOC2(CCN(S(=O)(=O)c3cccs3)CC2)C1)C(=O)OC(C)(C)C (stereo not shown) [Example 145, 4-methyl-2-{[8-(thiophene-2-sulphonyl)-1-oxa-2,8-diaza-spiro[4,5]dec-2-ene-3-carbonyl]-amino]-pentanoic acid tert-butyl ester] | 46 | – |
| O=C(NCc1cccs1)C1=NOC2(CCN(C(=O)c3cccc(Cl)c3F)CC2)C1 [Example 146, 8-(3-chloro-2-fluorobenzoyl)-1-oxa-2,8-diaza-spiro[4,5]dec-2-ene-3-carboxylic acid (thiophen-2-ylmethyl)-amide] | 61 | – |
| CC(Oc1ccccc1)C(=O)N1CCC2(CC1)CC(C(=O)NCc1ccccc1)=NO2 (stereo not shown) [Example 149, 8-(2-phenoxy-propionyl)-1-oxa-2,8-diaza-spiro[4,5]dec-2-ene-3-carboxylic acid benzylamide] | 50 | – |
| O=C(NC1CCCC1)C1=NOC2(CCN(C(=O)c3cccnc3Oc3ccccc3)CC2)C1 [Example 153, 8-(2-phenoxy-pyridine-3-carbonyl)-1-oxa-2,8-diaza-spiro[4,5]dec-2-ene-3-carboxylic acid cyclopentylamide] | 45 | – |
| CCOC(=O)C1CCCCN1C(=O)C1=NOC2(CCN(S(=O)(=O)c3ccc(Cl)s3)CC2)C1 (stereo not shown) [Example 155, 1-[8-(5-chloro-thiophene-2-sulphonyl)-1-oxa-2,8-diaza-spiro[4,5]dec-2-ene-3-carbonyl]-piperidine-2-carboxylic acid ethyl ester] | 41 | – |
| CN(C)S(=O)(=O)N1CCC2(CC1)CC(C(=O)NC1CCCC1OCc1ccccc1)=NO2 (stereo not shown) [Example 163, 8-dimethylsulphamoyl-1-oxa-2,8-diaza-spiro[4,5]dec-2-ene-3-acarboxylic cid (2-benzyloxy-cyclopentyl)-amide] | – | 62 |
| O=C(NCc1ccccc1)C1=NOC2(CCN(C(=O)COc3cccc(Cl)c3)CC2)C1 [Example 166, 8-[2-(3-chloro-phenoxy)-acetyl]-1-oxa-2,8-diaza-spiro[4,5]dec-2-ene-3-carboxylic acid benzylamide] | 53 | – |
| N#CCCN(CCc1ccccn1)C(=O)C1=NOC2(CCN(S(=O)(=O)c3ccc(F)cc3)CC2)C1 [Example 167, 8-(4-fluoro-benzenesulphonyl)-1-oxa-2,8-diaza-spiro[4,5]dec-2-ene-3-carboxylic acid (2-cyano-ethyl)-(2-pyridin-2-yl-ethyl)-amide] | 63 | – |
| CC(Cc1ccc(Cl)cc1)NC(=O)C1=NOC2(CCN(S(=O)(=O)c3ccc(Cl)s3)CC2)C1 (stereo not shown) [Example 168, 8-(5-chloro-thiophene-2-sulphonyl)-1-oxa-2,8-diaza-spiro[4,5]dec-2-ene-3-carboxylic acid [2-(4-chloro-phenyl)-1-methyl-ethyl]-amide] | 79 | – |
| COc1ccc(S(=O)(=O)N2CCC3(CC2)CC(C(=O)NC2CCCC2OCc2ccccc2)=NO3)cc1 (stereo not shown) [Example 169, 8-(4-methoxy-benzenesulphonyl)-1-oxa-2,8-diaza-spiro[4,5]dec-2-ene-3-carboxylic acid (2-benzyloxy-cyclopentyl)-amide] | 64 | – |
| Cc1ccc(F)c(C(=O)N2CCC3(CC2)CC(C(=O)NCc2cccs2)=NO3)c1F [Example 170, 8-(2,6-difluoro-3-methyl-benzoyl)-1-oxa-2,8-diaza-spiro[4,5]dec-2-ene-3-carboxylic acid (thiophen-2-ylmethyl)-amide] | 43 | – |
| O=C(NCc1ccccc1)C1=NOC2(CCN(C(=O)COCc3ccccc3)CC2)C1 [Example 171, 8-(2-benzyloxy-acetyl)-1-oxa-2,8-diaza-spiro[4,5]dec-2-ene-3-carboxylic acid benzylamide] | 73 | – |
| O=C(Nc1ccccc1)C1=NOC2(CCN(C(=O)c3cccc(Cl)c3Cl)CC2)C1 [Example 172, 8-(2,3-dichloro-benzoyl)-1-oxa-2,8-diaza-spiro[4,5]dec-2-ene-3-carboxylic acid phenylamide] | 41 | – |
| COc1ccc(Br)cc1S(=O)(=O)N1CCC2(CC1)CC(C(=O)NC1CCCC1)=NO2 [Example 173, 8-(5-bromo-2-methoxy-benzenesulphonyl)-1-oxa-2,8-diaza-spiro[4,5]dec-2-ene-3-carboxylic acid cyclopentylamide] | 60 | – |
| O=C(C1=NOC2(CCN(S(=O)(=O)c3ccc(OC(F)(F)F)cc3)CC2)C1)N1CCN(CCCc2ccccc2)CC1 [Example 176, [4-(3-phenyl-propyl)-piperazin-l-yl]-[8-(4-trifluoromethoxy-benzenesulphonyl)-1-oxa-2,8-diaza-spiro [4,5]dec-2-en-3-yl]-methanone] | – | 52 |
| Cc1onc(-c2c(F)cccc2Cl)c1C(=O)N1CCC2(CC1)CC(C(=O)NCc1ccccc1)=NO2 [Example 177, 8-[3-(2-chloro-6-fluorophenyl)-5-methyl-isoxazole-4-carbonyl]-1-oxa-2,8-diaza-spiro [4,5]dec-2-ene-3-carboxylic acid benzylamide] | 47 | – |
| CC(C)CNC(=O)C1=NOC2(CCN(C(=O)c3cccc4ccccc34)CC2)C1 [Example 178, 8-(naphthalene-1-carbonyl)-1-oxa-2,8-diaza-spiro[4,5]dec-2-ene-3-carboxylic acid isobutyl-amide] | 51 | – |

| SMILES | inhibition at 10 µM [%] | NA-uptake, 10 μM, % inhibition [%] |
| --- | --- | --- |
| CCOC(=O)C1CCCCN1C(=O)C1=NOC2(CCN(C(=O)c3cc(C(C)(C)C)oc3C)CC2)C1 (stereo not shown) [Example 179, 1-[8-(5-tert-butyl-2-methyl-furan-3-carbonyl)-1-oxa-2,8-diaza-spiro[4,5]dec-2-ene-3-carbonyl]-piperidine-2-carboxylic acid ethyl ester] | 49 | – |
| O=C(NCc1ccccc1)C1=NOC2(CCN(C(=O)c3cccc(SC(F)F)c3)CC2)C1 [Example 180, 8-(3-difluoromethylsulphanyl-benzoyl)-1-oxa-2,8-diaza-spiro[4,5]dec-2-ene-3-carboxylic acid benzylamide] | 61 | – |
| O=C(Nc1ccccc1)C1=NOC2(CCN(C(=O)c3ccc(Br)cc3)CC2)C1 [Example 181, 8-(4-bromo-benzoyl)-1-oxa-2,8-diaza-spiro[4,5]dec-2-ene-3-acarboxylic cid phenylamide] | – | 51 |
| COc1ccc(S(=O)(=O)N2CCC3(CC2)CC(C(=O)NC2CC2c2ccccc2)=NO3)cc1 (stereo not shown) [Example 182, 8-(4-methoxy-benzenesulphonyl)-1-oxa-2,8-diaza-spiro[4,5]dec-2-ene-3-carboxylic acid (2-phenyl-cyclopropyl)-amide] | 73 | – |
| O=C(NCc1cccs1)C1=NOC2(CCN(C(=O)CCCOc3ccccc3)CC2)C1 [Example 183] | – | 67 |
| O=C(NCc1cccs1)C1=NOC2(CCN(C(=O)c3ccc(F)c(Cl)c3)CC2)C1 [Example 184, 8-(3-chloro-4-fluorobenzoyl)-1-oxa-2,8-diaza-spiro[4,5]dec-2-ene-3-carboxylic acid (thiophen-2-ylmethyl)-amide] | 62 | – |
| CCSCCNC(=O)C1=NOC2(CCN(C(=O)c3cc(C(C)(C)C)nn3C)CC2)C1 [Example 185, 8-(5-tert-butyl-2-methyl-2H-pyrazole-3-carbonyl)-1-oxa-2,8-diaza-spiro[4,5]dec-2-ene-3-carboxylic acid (2-ethylsulphanyl-ethyl)-amide] | 45 | – |
| O=C(C1=NOC2(CCN(S(=O)(=O)c3ccc(F)cc3)CC2)C1)N1CCN(CCCc2ccccc2)CC1 [Example 186, [8-(4-fluoro-benzenesulphonyl)-1-oxa-2,8-diaza-spiro[4,5]dec-2-en-3-yl]-[4-(3-phenyl-propyl)-piperazin-1-yl]-methanone] | 63 | – |
| O=C(NCc1ccncc1)C1=NOC2(CCN(C(=O)c3ccc(OC(F)(F)F)cc3)CC2)C1 [Example 187, 8-(4-trifluoromethoxy-benzoyl)-1-oxa-2,8-diaza-spiro[4,5]dec-2-ene-3-carboxylic acid (pyridin-4-ylmethyl)-amide] | 44 | – |
| O=C(NC1CCCC1)C1=NOC2(CCN(C(=O)c3ccccc3COC(=O)c3ccccc3)CC2)C1 [Example 188] | – | 49 |
| CN(C)S(=O)(=O)N1CCC2(CC1)CC(C(=O)N1CCN(Cc3ccc(C(C)(C)C)cc3)CC1)=NO2 [Example 189, 3-[4-(4-tert-butyl-benzyl)-piperazine-1-carbonyl]-1-oxa-2,8-diaza-spiro[4,5]dec-2-ene-8-sulphonic acid dimethylamide] | 45 | – |
| O=C(NC1CCCC1OCc1ccccc1)C1=NOC2(CCN(S(=O)(=O)c3ccc(Cl)s3)CC2)C1 (stereo not shown) [Example 191] | – | 74 |
| O=C(NCc1cccs1)C1=NOC2(CCN(C(=O)c3cccc4ccccc34)CC2)C1 [Example 192, 8-(naphthalene-1-carbonyl)-1-oxa-2,8-diaza-spiro[4,5]dec-2-ene-3-carboxylic acid (thiophen-2-ylmethyl)-amide] | 41 | – |
| O=C(NCCCc1ccccc1)C1=NOC2(CCN(S(=O)(=O)c3ccc(F)cc3)CC2)C1 [Example 193, 8-(4-fluoro-benzenesulphonyl)-1-oxa-2,8-diaza-spiro[4,5]dec-2-ene-3-carboxylic acid (3-phenyl-propyl)-amide] | 47 | – |
| O=C(NCC1COc2ccccc2O1)C1=NOC2(CCN(S(=O)(=O)c3ccc(Cl)s3)CC2)C1 (stereo not shown) [Example 194, 8-(5-chloro-thiophene-2-sulphonyl)-1-oxa-2,8-diaza-spiro[4,5]dec-2-ene-3-carboxylic acid (2,3-dihydro-benzo[1,4]dioxin-2-ylmethyl)-amide] | 65 | – |
| CCOC(=O)C1CCCCN1C(=O)C1=NOC2(CCN(C(=O)c3ccc(C(C)(C)C)cc3)CC2)C1 (stereo not shown) [Example 195, 1-[8-(4-tert-butyl-benzoyl)-1-oxa-2,8-diaza-spiro[4,5]dec-2-ene-3-carbonyl]-piperidine-2-carboxylic acid ethyl ester] | 41 | – |
| O=C(NCCc1cccc(C(F)(F)F)c1)C1=NOC2(CCN(S(=O)(=O)c3ccc(F)cc3)CC2)C1 [Example 196] | – | 40 |
